The target of one series is HIV integrase (Human immunodeficiency virus type 1 group M subtype B, UniProt P04585). In words: integrase inhibition assay (microtiter plate, substrate DNA / target DNA). The series is classed as biochemical. Conditions: integrase 30 pmol, incubated at 30° C. for 1 hour, OD at 405 nm, concentration at percent inhibition 50%; for IC50: read-out: MIA, IC50 (ug/ml) (converted). The method, then: The inhibitory activities against integrase of the presnt compounds were determined by the assay described below.
(1) Preparation of DNA Solutions
Substrate DNA and target DNA synthesized by Amersham Pharmacia Biotech, which sequences were indicated below, were dissolved in KTE buffer (composition: 100 mM KCl, 1 mM EDTA, 10 mM Tris-HCl (pH 7.6)) at a concentration of 2 pmol/μl and 5 pmol/μl, respectively. The DNA solutions were heated and then slowly cooled so that they were annealed with each complement.
(Sequence of Substrate DNA)
(2) Calculations of the percent inhibitions (IC50 values of test compounds)
Streptavidin, obtained from Vector Laboratories, was dissolved in 0.1 M carbonate buffer (composition: 90 mM Na2CO3, 10 mM NaHCO3) at a concentration of 40 μg/ml. After coating each well of microtiter plates (obtained from NUNC) with 50 μl of the above solution at 4° C. over night, each well was washed twice with PBS (composition: […], 0.27 mM KCl, 0.43 mM Na2HPO4, 0.14 mM KH2PO4) and blocked with 300 μl of 1% skim milk in PBS for 30 min. Additionally, each well was washed twice with PBS and added with 50 μl of the substrate DNA solution (2 pmol/μl). The microtiter plates were kept at room temperature for 30 min. Then, each well was washed twice with PBS and once with H2O.
Subsequently, to the each well prepared above were added 45 μl of the reaction buffer prepared from 12 μl of the buffer (composition: 150 mM MOPS (pH 7.2), 75 mM MnCl2, 50 mM 2-mercaptoethanol, 25% glycerol, 500 μg/ml bovine serum albumin-fraction V), 1 μl of target DNA (5 pmol/μ), and 32 μl of the distilled water. Additionally, 6 μl of either a test compound in DMSO or DMSO for positive control (PC) was mixed with the above reaction buffer, then 9 μl of an integrase solution (30 pmol) was added thereto and the mixture was mixed well. To the well of negative control (NC) was added 9 μl of the integrase dilution buffer (composition: 20 mM MOPS (pH7.2), 400 mM potassium glutamate, 1 mM EDTA, 0.1% NP-40, 20% glycerol, 1 mM DTT, 4 M urea).
The microtiter plates were incubated at 30° C. for 1 hour. The reaction solution was removed and each well was washed twice with PBS. Subsequently, each well of the microtiter plates was filled with 100 μl of anti-digoxigenin antibody labeled with alkaline phosphatase (Sheep Fab fragment: obtained from Boehringer) and incubated at 30° C. for 1 hour. Then, each well was washed twice with 0.05% Tween20 in PBS and once with PBS. Next, 150 μl of the Alkaline phosphatase reaction buffer (composition: 10 mM p-Nitrophenylphosphate (obtained from Vector Laboratories), 5 mM MgCl2, 100 mM NaCl, 100 mM Tris-HCl (pH 9.5)) was added to each well. The microtiter plates were incubated at 30° C. for 2 hours and the reaction was terminated by the addition of 50 μl of 1 N NaOH solution. The optical density (OD) at 405 nm of each well was measured and the percent inhibition was determined by the following expression. The percent inhibition (%)=100[1−{(C abs.−NC abs.)/(PC abs.−NC abs.)}]
C abs.; the OD of the well of the test compound
NC abs.: the OD of the negative control (NC)
PC abs.: the OD of the positive control (PC)
When the percent inhibition (%) is X % at a concentration of x μg/ml and the percent inhibition (%) is Y % at a concentration of y μg/ml, one of which is more than 50% and the other is less than 50%, IC50 can be determined by the following expression. IC50 (μg/ml)=x−{(X−50)(x−y)/(X−Y)}
Compound No. in the Table 1 is the same as compound No. of the above Examples.

Where “and” joins values, the source holds several entries; their conditions need not be identical. Equal values may be shown once.

The text below walks through data of patent publication US7358249B2, “Heterocyclic compounds having inhibitory activity against HIV integrase” (Shionogi & Co., Ltd., priority 2002, dated 2008).

What is called melting point is the temperature, or range, at which the solid turns liquid.

In turn, `COCCNC(=O)c1cc(C(=O)OC)c(O)c2ncc(Cc3ccc(F)cc3)cc12` [Compound I-6] returned a melting point of 152 to 154 °C. For the same compound, on HIV integrase, the IC50 is 412 nM.

`CNC(=O)c1nc(C#CCO)c2cc(Cc3ccc(F)cc3)cnc2c1O` [Compound A-98, 3-(4-Fluorobenzyl)-8-hydroxy-5-(3-hydroxy-1-propyn-1-yl)-[1,6]naphthylidine-7-carboxylic acid methyl amide] came in with a melting point of 185 °C. The IC50 at HIV integrase is 520 nM. Taken in the same sequence, the figures for `COC(=O)c1cc(NC2CCCCC2)c2cc(Cc3ccc(F)cc3)cnc2c1O` [Compound I-15, 5-Cyclohexylamino-3-(4-fluorobenzyl)-8-hydroxyquinoline-7-carboxylic acid methylester] were 75.5 to 77.5 °C and 1620 nM. Taken in the same sequence, the figures for `COC(=O)c1nc(NC(=O)c2ccco2)c2cc(Cc3ccc(F)cc3)cnc2c1O` [Compound A-66, 3-(4-Fluorobenzyl)-5-(frane-2-carbonyl)amino-8-hydroxy[1,6]naphthylidine-7-carboxylic acid methyl ester] were 200 to 202 °C and 688 nM. For `CCOC(=O)Nc1nc(C(=O)OC)c(O)c2ncc(Cc3ccc(F)cc3)cc12` [Compound A-42, 5-[(Ethoxycarbonyl)amino]-3-(4-fluorobenzyl)-8-hydroxy[1,6]naphthylidine-7-carboxylic acid methyl ester] the same measures were 247 to 249 °C and 576 nM. As for `COC(=O)c1cc(N)c2cc(Cc3ccc(F)cc3)cnc2c1O` [Compound I-8, 5-Amino-3-(4-fluorobenzyl)-8-hydroxyquinoline-7-carboxylic acid methyl ester], the melting point lay within 114 to 115 °C. For the same compound, the IC50 on HIV integrase was 398 nM. Taken in the same sequence, the figures for `O=C(O)c1cc(C(=O)O)c2cc(Cc3ccc(F)cc3)cnc2c1O` [Compound I-4, 3-(4-Fluorobenzyl)-8-hydroxyquinoline-5,7-dicarboxylic acid] were 279 to 282 °C and 352 nM. With `COC(=O)c1nc(C#CCO)c2cc(Cc3ccc(F)cc3)cnc2c1O` [Compound A-18, Methyl 3-(4-fluorobenzyl)-8-hydroxy-5-(3-hydroxy-1-propynyl)-1,6-naphthylidine-7-carboxylate], the melting point is 205 to 208 °C. For the same compound, the IC50 at HIV integrase is 655 nM. `COC(=O)c1cc(N2CCOC2=O)c2cc(Cc3ccc(F)cc3)cnc2c1O` [Compound I-183, 3-(4-Fluorobenzyl)-8-hydroxy-5-(2-oxo-oxazolidine-3-yl)-quinoline-7-carboxylic acid methyl ester] displayed a melting point of 152 to 153 °C. Besides, at HIV integrase, the IC50 is 353 nM.

`COC(=O)c1ncc2cc(Cc3ccc(F)cc3)cnc2c1O` [Compound A-2, Methyl 3-(4-fluorobenzyl)-8-hydroxy-1,6-naphthylidine-7-carboxylate] registered a melting point of 218 to 219 °C. Further, the IC50 at HIV integrase is 416 nM. In the case of `COC(=O)c1cc(-c2n[nH]c(C)n2)c2cc(Cc3ccc(F)cc3)cnc2c1O` [Compound I-134, 3-(4-Fluorobenzyl)-8-hydroxy-5-(5-methyl-1H-[1,2,4]triazole-3-yl)quinoline-7-carboxylic acid methyl ester], the melting point was 200 to 202 °C and 195 to 196 °C. In addition, at HIV integrase, the IC50 is 357 nM.

Take `COC(=O)c1cc(C(=O)O)c2cc(Cc3ccc(F)cc3)cnc2c1O` [Compound I-3, 3-(4-Fluorobenzyl)-8-hydroxy-quinoline-5,7-dicarboxylic acid 7-methylester]: the melting point lay within 237 to 239 °C. At HIV integrase, the IC50 was 394 nM. Taken in the same sequence, the figures for `CC(=O)N1CCC(OC(=O)c2ncc3cc(Cc4ccc(F)cc4)cnc3c2O)CC1` [Compound A-82, 3-(4-Fluorobenzyl)-8-hydroxy[1,6]naphthylidine-7-carboxylic acid 1-acetylpiperidine-4-yl ester] were 163 to 165 °C and 260 nM.

As for `COCCC(=O)Nc1nc(C(=O)OC)c(O)c2ncc(Cc3ccc(F)cc3)cc12` [Compound A-34, 3-(4-Fluorobenzyl)-8-hydroxy-5-(3-methoxy-1-propionyl)amino[1,6]naphthylidine-7-carboxylic acid methyl ester], the melting point was 205 to 206 °C. In addition, the IC50 at HIV integrase is 701 nM.

`COC(=O)c1nc(C#CCNS(C)(=O)=O)c2cc(Cc3ccc(F)cc3)cnc2c1O` [Compound A-50, 3-(4-Fluorobenzyl)-8-hydroxy-5-[3-(methanesulfonyamino)propyn-1-yl][1,6]naphthylidine-7-carboxylic acid methyl ester] had a melting point of 223 to 225 °C. Moreover, at HIV integrase, the IC50 is 248 nM. For the compound `CN=C(Nc1cc(C(=O)OC)c(O)c2ncc(Cc3ccc(F)cc3)cc12)SC` [Compound I-19, 5-(2,3-Dimethylisothioureido)-3-(4-fluorobenzyl)-8-hydroxyquinoline-7-carboxylic acid methylester], the melting point lay within 198.5 to 199.5 °C. Moreover, the IC50 at HIV integrase is 1040 nM. The compound `COC(=O)c1cc(NC(C)=O)c2cc(Cc3ccc(F)cc3)cnc2c1O` [Compound I-10, 5-Acetylamino-3-(4-fluorobenzyl)-8-hydroxyquinoline-7-carboxylic acid methylester] gave a melting point of 243 to 245 °C. For the same compound, the IC50 at HIV integrase was 1300 nM.

For `COC(=O)c1cc(C(=O)N2CCOCC2)c2cc(Cc3ccc(F)cc3)cnc2c1O` [Compound I-26, (4-Fluorobenzyl)-8-hydroxy-5-(morpholine-4-carbonyl)quinoline-7-carboxylic acid methyl ester], the “MIA, IC50” value on HIV integrase came out at 0.37 µg/mL.

On to `COC(=O)c1cc(NS(C)(=O)=O)c2cc(Cc3ccc(F)cc3)cnc2c1O` [Compound I-12, 3-(4-Fluorobenzyl)-8-hydroxy-5-methanesulfonylaminoquinoline-7-carboxylic acid methyl ester], for which the melting point lay within 189.5 to 190.5 °C. For the same compound, the IC50 at HIV integrase is 1240 nM. Consider `CCOC(=O)Nc1cc(C(=O)OC)c(O)c2ncc(Cc3ccc(F)cc3)cc12` [Compound I-9, 5-Ethoxycarbonylamino-3-(4-fluorobenzyl)-8-hydroxyquinoline-7-carboxylic acid methyl ester], for which the melting point lay within 205 to 206 °C. At HIV integrase, the IC50 was 703 nM. As to `COC(=O)c1cc(NC=O)c2cc(Cc3ccc(F)cc3)cnc2c1O` [Compound I-13, 3-(4-Fluorobenzyl)-5-formylamino-8-hydroxyquinoline-7-carboxylic acid methyl ester], the IC50 on HIV integrase is 1040 nM. Regarding `COC(=O)c1cc(C(=O)NC(C)C(=O)OC)c2cc(Cc3ccc(F)cc3)cnc2c1O` (stereo not drawn) [Compound I-54, (4-Fluorobenzyl)-8-hydroxy-5-(1-methoxycarbonylethylcarbamoyl)quinoline-7-carboxylic acid methyl ester], the “MIA, IC50” value on HIV integrase stood at 0.38 µg/mL. Turning to `COC(=O)c1nc(NC(=O)C(=O)N(C)C)c2cc(Cc3ccc(F)cc3)cnc2c1O` [Compound A-115, 5-[[(Dimethylamino)oxalyl]amino]-3-(4-fluorobenzyl)-8-hydroxy[1,6]naphthylidine-7-carboxylic acid methyl ester], the IC50 at HIV integrase is 422 nM.
